EC50 data for 15 compounds are collected here from patent publication US20210315893A1 (Galapagos NV, priority 2017, published 2021).

The structures appear in SMILES notation.

Assay [1] relates to HFL-1 cells. In words: IL8 assay in the presence of Human Serum Albumin. As to conditions: HFL1, read-out: HSA IL8 EC50.
In assay [2] the test system is HFL-1 cells. In words: IL-8 production assay (S1P induced IL-8). As to conditions: Homo sapiens, HFL1; S1P (1 μM) induced IL-8 in HFL-1 cells, starvation medium without HSA; read-out: IL8 EC50. The format is cell-based. Put shortly:
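HFL-1 fibroblasts in low-serum medium were pretreated 1 h with a 10-point 1/3 series of compound starting at 30 μM (0.3% DMSO).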

Assay [3] concerns the target T1, human GPCR sphingosine 1-phosphate receptor 1 (Homo sapiens, UniProt P21453).
T1 construct: host or cells: CHO
Kind of assay: S1PR1 selectivity Ca2+ flux assay (antagonist readout). The format is cell-based. As to conditions: antagonist readout, CHO cells overexpressing human S1PR1 and Gq, S1P at EC80 (6 nM); read-out: S1P1 EC50 (nM), S1P1 antagonist EC50. Put shortly: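 Antagonist mode: S1P challenge follows 15 min compound preincubation at 37 °C. Cells are CHO stably expressing human S1PR1, serum-starved 1 h (0.1% FAF BSA), loaded with Fluo 8. Peak-over-baseline fluorescence ratio is normalized to positive/negative controls; IC50 from logistic curve fit.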

For assay [4], the target named is T2, human GPCR sphingosine 1-phosphate receptor 5 (Homo sapiens, UniProt Q9H228).
T2 construct: host or cells: CHO
T2 sequence (Q9H228 whole entry): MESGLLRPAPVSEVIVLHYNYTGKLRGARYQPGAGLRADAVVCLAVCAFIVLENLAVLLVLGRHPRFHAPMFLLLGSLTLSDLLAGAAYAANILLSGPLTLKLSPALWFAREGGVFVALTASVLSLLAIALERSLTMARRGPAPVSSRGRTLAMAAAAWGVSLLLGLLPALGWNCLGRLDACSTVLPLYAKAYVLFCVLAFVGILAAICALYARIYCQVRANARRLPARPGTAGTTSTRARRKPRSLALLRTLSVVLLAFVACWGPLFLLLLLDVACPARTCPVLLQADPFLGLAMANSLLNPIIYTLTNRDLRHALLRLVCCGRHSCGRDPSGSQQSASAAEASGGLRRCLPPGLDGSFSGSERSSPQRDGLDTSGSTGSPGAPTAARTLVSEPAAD
In words: S1PR5 selectivity Ca2+ flux assay (antagonist readout). It counts as cell-based. As to conditions: CHO cells overexpressing human S1PR5 and Gq, agonist at EC80 (20 nM), read-out: S1P5 EC50 (nM), S1P5 antagonist EC50. In outline:
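Antagonist readout: after 15 min compound preincubation at 37° C, human S1PR5/Gq CHO cells loaded with Fluo 8 dye received an EC80 challenge of S1PR5-specific agonist, and fluorescence was recorded for 3 min. Maximal-over-background ratios, normalized as % inhibition, gave IC50 by logistic fit.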
For orientation: Calcium flux is commonly read through the fluorescence of an indicator in the cells.

The target in assay [5] is T3, human GPCR sphingosine 1-phosphate receptor 2 (Homo sapiens, UniProt O95136).
T3 construct: host or cells: CHO
T3 sequence (O95136 whole entry): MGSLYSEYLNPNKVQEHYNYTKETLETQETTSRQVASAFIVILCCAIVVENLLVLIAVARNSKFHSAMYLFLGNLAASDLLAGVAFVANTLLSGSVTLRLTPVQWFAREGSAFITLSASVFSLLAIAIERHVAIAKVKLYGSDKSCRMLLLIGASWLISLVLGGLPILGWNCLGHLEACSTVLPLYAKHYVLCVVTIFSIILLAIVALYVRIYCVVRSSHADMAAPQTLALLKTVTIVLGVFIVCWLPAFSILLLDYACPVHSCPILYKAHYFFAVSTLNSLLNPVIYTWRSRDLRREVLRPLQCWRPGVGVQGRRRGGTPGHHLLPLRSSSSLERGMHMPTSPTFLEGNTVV
In words: S1PR2 antagonist Ca2+ flux assay. It counts as cell-based. As to conditions: antagonist mode, CHO-S1PR2 cells, S1P at EC80, Ca2+ fluorescence; read-out: S1P2 EC50 (nM), S1P2 antagonist EC50. In outline: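 Antagonist mode: 15 min after compound addition, S1P (EC80) stimulates Fluo8-loaded, 1 h-starved CHO-S1PR2 cells, Ca2+ read over 3 min; a prior 3-min read checks compound agonism. EC50 from peak/baseline fluorescence ratio, normalised versus vehicle and S1P EC50 (antagonist) or EC100 (agonist).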

Another assay has as its target T4, S1PR2 (Homo sapiens, UniProt O95136).
T4 construct: expressed in transfected cells
In words: S1PR2 binding assay (competition with radioactively labeled S1P, SpA). As to conditions: membranes from stable cell line over expressing S1PR2, SpA beads; read-out: S1P2 EC50 (nM), S1PR2 binding EC50. Put shortly: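 Scintillation proximity read-out after 2 h room-temperature incubation of compound, [3H]S1P and S1PR2-overexpressing cell membranes on WGA-coated beads. Buffer: 20 mM Tris pH 7.5, 100 mM NaCl, 10 mM MgCl2, 1 mM Na3VO4, 0.4% fatty-acid-free BSA; plates counted immediately after centrifugation.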

T1 sequence (P21453 whole entry): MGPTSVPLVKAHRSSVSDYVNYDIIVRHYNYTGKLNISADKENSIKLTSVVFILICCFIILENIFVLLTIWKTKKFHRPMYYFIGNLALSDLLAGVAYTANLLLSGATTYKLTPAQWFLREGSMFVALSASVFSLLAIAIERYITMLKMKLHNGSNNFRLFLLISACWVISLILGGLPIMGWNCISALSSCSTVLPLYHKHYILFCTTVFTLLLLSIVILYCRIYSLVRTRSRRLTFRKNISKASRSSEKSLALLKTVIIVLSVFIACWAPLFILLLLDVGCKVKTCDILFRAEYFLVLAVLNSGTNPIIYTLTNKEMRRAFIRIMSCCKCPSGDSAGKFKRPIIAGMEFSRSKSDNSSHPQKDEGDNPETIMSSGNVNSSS
T4 sequence (O95136 whole entry): as the sequence (O95136 whole entry) above

Usually EC50 stands for the concentration giving half of the maximal effect. Turning to `N#Cc1cc2[nH]c(Cc3nn(CC(=O)N4CCC(O)(C(F)(F)F)C4)c(=O)c4ccccc34)nc2cc1OCC(F)F` (stereo not drawn) [Compound 216, 6-(2,2-difluoroethoxy)-2-[[3-[2-[3-hydroxy-3-(trifluoromethyl)pyrrolidin-1-yl]-2-oxo-ethyl]-4-oxo-phthalazin-1-yl]methyl]-3H-benzimidazole-5-carbonitrile], the EC50 was 16 nM in the assay with HFL-1 cells [1]; 12.2 nM in the assay on HFL-1 cells [2]; no less than 19800 nM in assay [3]; 19800 nM in assay [4]; 13 nM in assay [5]; 44.7 nM on S1PR2.
Take `O=C(Cc1nn(Cc2nc3cc(OCC4CC4)c(Br)cc3[nH]2)c2ccccc2c1=O)N1C[C@H](O)[C@@H](O)C1` [Compound 217, 1-[[6-bromo-5-(cyclopropylmethoxy)-1H-benzimidazol-2-yl]methyl]-3-[2-[(3S,4S)-3,4-dihydroxypyrrolidin-1-yl]-2-oxo-ethyl]cinnolin-4-one]: the EC50 with HFL-1 cells [1] is 1.36 nM; in the assay on HFL-1 cells [2], 0.04 nM; in assay [3], 698 nM; in assay [4], 19800 nM; in assay [5] it was 2.23 nM; at S1PR2, 2.58 nM.
On to `N#Cc1cc2[nH]c(Cc3nn(CC(=O)N4CCN(CC5CC5)CC4)c(=O)c4ccccc34)nc2cc1OCC(F)F` [Compound 218, 2-[[3-[2-[4-(cyclopropylmethyl)piperazin-1-yl]-2-oxo-ethyl]-4-oxo-phthalazin-1-yl]methyl]-6-(2,2-difluoroethoxy)-3H-benzimidazole-5-carbonitrile], for which the half-maximal effective concentration (EC50) was 15200 nM in the assay with HFL-1 cells [1]; 151 nM in the assay on HFL-1 cells [2]; no less than 19800 nM in assay [3]; 19800 nM in assay [4]; 1410 nM in assay [5]; 526 nM at S1PR2.
As for `CC1(C)CN(C(=O)Cn2nc(Cc3nc4cc(OCC(F)F)c(C#N)cc4[nH]3)c3ccccc3c2=O)CCO1` [Compound 227, 6-(2,2-difluoroethoxy)-2-[[3-[2-(2,2-dimethylmorpholin-4-yl)-2-oxo-ethyl]-4-oxo-phthalazin-1-yl]methyl]-3H-benzimidazole-5-carbonitrile], the EC50 with HFL-1 cells [1] is 84.2 nM; in the assay on HFL-1 cells [2] it was 16.9 nM; in assay [3] it was no less than 19800 nM; in assay [4], 19800 nM; in assay [5] it was 14.5 nM; at S1PR2 it was 82.1 nM.
With `CC1(C)CCN(C(=O)Cn2nc(Cc3nc4cc(OCC(F)F)c(C#N)cc4[nH]3)c3ccccc3c2=O)CC1` [Compound 234, 6-(2,2-difluoroethoxy)-2-[[3-[2-(4,4-dimethyl-1-piperidyl)-2-oxo-ethyl]-4-oxo-phthalazin-1-yl]methyl]-3H-benzimidazole-5-carbonitrile], the EC50 in the assay on HFL-1 cells [1] is 378 nM; in the assay with HFL-1 cells [2] it was 34.2 nM; in assay [3] it was no less than 19800 nM; in assay [4], 19800 nM; in assay [5] it was 13 nM; at S1PR2, 270 nM.
As to `CS(=O)(=O)NC(=O)Cn1nc(Cc2nc3cc(OCC4CC4)c(Cl)cc3[nH]2)c2ccccc2c1=O` [Compound 242, 2-[4-[[6-chloro-5-(cyclopropylmethoxy)-1H-benzimidazol-2-yl]methyl]-1-oxo-phthalazin-2-yl]-N-methylsulfonyl-acetamide], the EC50 in the assay with HFL-1 cells [1] amounted to 111 nM; in the assay with HFL-1 cells [2], 77.3 nM; in assay [3], 560 nM; in assay [4] it was 19800 nM; in assay [5], 19.2 nM; on S1PR2 it was 299 nM.
For the compound `CS(=O)(=O)NC(=O)Cn1nc(Cn2cc3cc(OCC4CC4)c(Cl)cc3n2)c2ccccc2c1=O` [Compound 243, 2-[4-[[6-chloro-5-(cyclopropylmethoxy)indazol-2-yl]methyl]-1-oxo-phthalazin-2-yl]-N-methylsulfonyl-acetamide], the EC50 was 2580 nM with HFL-1 cells [1]; 764 nM in the assay with HFL-1 cells [2]; no less than 19800 nM in assay [3]; 19800 nM in assay [4]; 9 nM in assay [5]; 400 nM on S1PR2.
Turning to `O=C(Cn1nc(Cn2cc3cc(OCC4CC4)c(Cl)cc3n2)c2ccccc2c1=O)NS(=O)(=O)C1CC1` [Compound 244, 2-[4-[[6-chloro-5-(cyclopropylmethoxy)indazol-2-yl]methyl]-1-oxo-phthalazin-2-yl]-N-cyclopropylsulfonyl-acetamide], the EC50 in the assay with HFL-1 cells [1] is 808 nM; in the assay on HFL-1 cells [2], 21.3 nM; in assay [3] it was no less than 19800 nM; in assay [4] it was 19800 nM; in assay [5], 8.29 nM; on S1PR2, 136 nM.
As for `N#Cc1cc2[nH]c(Cc3nn(CC(=O)O)c(=O)c4ccccc34)nc2cc1OCC1CC1` [compound 7, 2-[4-[[6-cyano-5-(cyclopropyl-methoxy)-1H-benzimidazol-2-yl]methyl]-1-oxo-phthalazin-2-yl]acetic acid], the EC50 was 11.3 nM in the assay on HFL-1 cells [1]; 3.67 nM in the assay with HFL-1 cells [2]; no less than 19800 nM in assay [3]; 19800 nM in assay [4]; 8.26 nM in assay [5]; 50.3 nM on S1PR2.
As for `N#Cc1cc2nn(Cc3nn(CC(=O)O)c(=O)c4ccccc34)cc2cc1OCC(F)F` [compound 8, 2-[4-[[6-cyano-5-(2,2-difluoro-ethoxy)indazol-2-yl]methyl]-1-oxo-phthalazin-2-yl]acetic acid], the EC50 in the assay with HFL-1 cells [1] was 9950 nM; in the assay on HFL-1 cells [2], 610 nM; in assay [3], no less than 19800 nM; in assay [4], 19800 nM; in assay [5] it was 10700 nM; on S1PR2, 2490 nM.
Turning to `N#Cc1cc2[nH]c(Cn3nc(CC(=O)N4C[C@H](O)[C@@H](O)C4)c(=O)c4ccccc43)nc2cc1OCC1CC1` [compound 10, 6-(cyclopropyl-methoxy)-2-[[3-[2-[(3S,4S)-3,4-dihydroxy-pyrrolidin-1-yl]-2-oxo-ethyl]-4-oxo-cinnolin-1-yl]methyl]-3H-benzimidazole-5-carbonitrile], the EC50 with HFL-1 cells [1] is 3.17 nM; in the assay with HFL-1 cells [2] it was 0.567 nM; in assay [3], no less than 19800 nM; in assay [4], 19800 nM; in assay [5], 4.55 nM; at S1PR2, 11.6 nM.
Consider `O=C(Cn1nc(Cc2cc3cc(Cl)c(OCC(F)F)cc3[nH]2)c2ccccc2c1=O)N1CCOCC1` [compound 11, 4-[[5-chloro-6-(2,2-difluoro-ethoxy)-1H-indol-2-yl]-methyl]-2-(2-morpholino-2-oxo-ethyl)-phthalazin-1-one], for which the EC50 with HFL-1 cells [1] was 694 nM; in the assay with HFL-1 cells [2], 59.6 nM; in assay [3], no less than 19800 nM; in assay [4] it was 19800 nM; in assay [5] it was 80 nM; on S1PR2, 324 nM.
`NC(=O)c1ccc2c(=O)n(CC(=O)N3CCOCC3)nc(Cc3nc4cc(OCC(F)F)c(Cl)cc4[nH]3)c2c1` [compound 12, 4-[[6-chloro-5-(2,2-difluoro-ethoxy)-1H-benzimidazol-2-yl]methyl]-2-(2-morpholino-2-oxo-ethyl)-1-oxo-phthalazine-6-carboxamide]: the EC50 in the assay on HFL-1 cells [1] was 1100 nM; in the assay with HFL-1 cells [2], 143 nM; in assay [3], no less than 19800 nM; in assay [4], 19800 nM; in assay [5] it was 276 nM; on S1PR2, 582 nM.
For `N#Cc1cc2[nH]c(Cc3nn(CC(=O)N4CC[C@H](O)C4)c(=O)c4ccccc34)nc2cc1OCC(F)F` [compound 13, 6-(2,2-difluoro-ethoxy)-2-[[3-[2-[(3S)-3-hydroxy-pyrrolidin-1-yl]-2-oxo-ethyl]-4-oxo-phthalazin-1-yl]methyl]-3H-benzimidazole-5-carbonitrile], the EC50 in the assay with HFL-1 cells [1] is 251 nM; with HFL-1 cells [2], 105 nM; in assay [3] it was no less than 19800 nM; in assay [4], 19800 nM; in assay [5] it was 120 nM; on S1PR2, 221 nM.
Turning to `CC(C(=O)NS(C)(=O)=O)c1nn(Cc2cn3cc(OCC4CC4)c(Cl)cc3n2)c2ccccc2c1=O` (stereo not drawn) [compound 15, 2-[1-[[7-chloro-6-(cyclopropyl-methoxy)imidazo-[1,2-a]pyridin-2-yl]methyl]-4-oxo-cinnolin-3-yl]-N-methylsulfonyl-propanamide], the EC50 is 343 nM in the assay on HFL-1 cells [1]; 24.2 nM with HFL-1 cells [2]; no less than 19800 nM in assay [3]; 19800 nM in assay [4]; 5.57 nM in assay [5]; 378 nM on S1PR2.
